Source: US9585897B2, “Anti-infective hydroxy-phenyl-benzoates and methods of use” (priority 2008, dated 2017)

Experiments:
S. aureus [1] = type: cell-based, Staphylococcus aureus; conditions: for agr expression: dose-dependent, SAL at 25 or 50 μg/ml, DICL, 2.5 or 5 μg/ml
[2] = tested on: SA strains SH1000 (MSSA), USA300 (MRSA); assay: Gene expression quantified by realtime PCR, statements covering both SA strains; type: cell-based, Staphylococcus aureus
[3] = tested on: SA strains SH1000 (MSSA), USA300 (MRSA); assay: Hemolysin phenotype compared to gene expression; conditions: in parallel to hla; 25 μg/ml
SH1000 (MSSA) = assay: Gene expression quantified by realtime PCR, strain SH1000; conditions: early log phase (2-4 hr); 25 μg/ml
USA300 (MRSA) = assay: Gene expression quantified by realtime PCR, strain USA300; conditions: early log phase (2-4 hr); 25 μg/ml
[4] = tested on: SA strains SH1000 (MSSA), USA300 (MRSA); assay: Antibiotic resistance phenotype (antibiotic MIC) in presence of salicylates; conditions: vs. both strains
[5] = tested on: S. aureus: ISP479C, Newman and COL; assay: In vitro MICs of aspirin and SAL; type: cell-based, Staphylococcus aureus; conditions: 10-50 ug/ml up to 8 mg/ml
[6] = tested on: S. aureus (9 individual strains); assay: S. aureus-to-fibrinogen or -fibronectin binding, solid-phase assays; type: cell-based, Staphylococcus aureus; conditions: pre-exposed to SAL 30 and 50 μg/ml; composite of 9 strains; dose-dependent
Description: Induction of endovascular infections is linked to the microbial binding to relevant vascular damage sites.
Fibrinogen and fibronectin play key roles as ligands for S. aureus binding to cellular docking sites (e.g., platelets and endothelial cells), as well as bridging molecules that facilitate these same interactions in which additional factors are operative (e.g., gC1qR-platelet or endothelial cell binding). Peerschke and Ghebrehiwet, Immunobiology.
Mean reduction (±SD) vs. control (100%). Data are composite results of laboratory S. aureus RN6390, COL, Newman, and ISP479C, and clinical MRSA 67-0, 6850, Duke 28, Duke 153, and Duke 237. […] Key: A P<0.005; B <P 0.001.

S. aureus [7] = assay: Solid-phase plate assay, adherence to fibrin and platelet-fibrin matrices; type: cell-based, Staphylococcus aureus; conditions: organism pre-exposure to SAL in vitro
Description: A solid-phase plate assay was used to quantify the impact of SAL on the ability of S. aureus to adhere to fibrin and platelet-fibrin matrices. Platelet-rich (PRP) or platelet-free plasma (PFP) from control animals or those given a single-dose of aspirin iv (8 mg/kg) 5 hr prior to plasma isolation, were used to generate such matrices. […] Kupferwasser et al. Circulation. 1999 99:2791-7. These strains bound equally to control matrices and those constructed from aspirin-treated animals (data not shown).

S. aureus α-toxin = type: cell-based, Staphylococcus aureus
S. aureus [8] = assay: Protease activity in S. aureus supernatants; type: cell-based, Staphylococcus aureus; conditions: in the presence of SAL
[9] = tested on: S. aureus FDA 486 and rsbU/V/W mutants; type: cell-based, Staphylococcus aureus
[10] = tested on: S. aureus strains MSSA (6850), MRSA (COL), RN6390, SH1000, sigB operon deleted strains; assay: Rabbit IE model with a range of S. aureus strains; type: in vivo
[11] = tested on: S. aureus: ISP479C, Newman and COL; conditions: physiologically relevant drug concentrations; cited from earlier work
S. aureus [12] = assay: sarA-repressible genes, lipase and protein A; conditions: in the presence of SAL
S. aureus IE = assay: Rabbit model of S. aureus IE, aspirin, vancomycin or both for 2 d; type: in vivo
Description: In the rabbit model of S. aureus IE, two intravenous (iv) aspirin dose regimens designed to encompass those used in a previous aspirin-alone efficacy study (4 or 8 mg/kg/d) were employed. Animals received aspirin alone, vancomycin alone at a low dose regimen (7.5 mg/kg bid iv), or the two agents combined. Treatment was only for 2 d, based on the rationale that as the in vivo effects of vancomycin are traditionally slow in onset, maximal disclosure of any synergistic effect of the two compounds may emerge at this early time point.

strain RN6390 = assay: Rabbit model of IE, aspirin alone 4 to 12 mg/kg/d for 4 d; type: in vivo
Description: To begin to assess the in vitro data sets for in vivo relevance, the rabbit model of IE as described by […] et al. Handbook of Animal Models of Infection. Academic Press, New York, N.Y., was utilized. Animals with pre-established IE caused by strain RN6390 were administered a wide range of iv aspirin dose regimens (4 to 12 mg/kg/d for 4 d therapy). This range affords human-equivalent sera levels in rabbits as described in Kupferwasser et al. Circulation. 1999 99:2791-7.

[13] = tested on: three distinct S. aureus strains; assay: NSAID effect on phenotypic or genotypic characteristics of S. aureus in vitro; type: cell-based, Staphylococcus aureus
Description: These findings also substantiate the concept that the anti-infective properties of aspirin likely occur by both platelet-dependent (aspirin) and platelet independent (SAL) mechanisms. Thus, the discovery of adjunctive use of SALs for MRSA infections are particularly relevant given: 1) long-term and extensive experience of aspirin for a variety of clinical indications; 2) its well-defined pharmacokinetics; and 3) its excellent adverse event and safety profiles.

[14] = Plasma prostacyclin levels after aspirin dosing

O=C(O)Cc1ccccc1Nc1c(Cl)cccc1Cl [DICL, diclofenac]
agr expression (S. aureus [1]): reduced

O=C(O)c1cc(-c2ccc(F)cc2F)ccc1O [DIF, 5-(2,4-difluorophenyl)-2-hydroxy-benzoic acid]
regulatory and VF gene expression in MSSA and MRSA [2]: significantly modulate | effectiveness relative to SAL in suppressing virulence factor regulation or expression in MRSA ([2]; in vitro, MRSA including USA300): approximately 10 fold | reduction of RNAIII (agr), hla, sspA compared with SAL ([2]; log phase): ten-fold higher reduction | Hemolysis phenotypes [3]: suppressed | suppression of agr RNAIII, hla, and vraR (SH1000 (MSSA)): > 20 fold | expression of agr RNAIII, hla, mprF, and sspA (USA300 (MRSA)): suppressed | increases in ciprofloxacin MIC [4]: prevented increases

O=C(O)c1cc(O)ccc1O [GTA, gentisic acid]
gene expression ([2]; 25 μg/ml): did not alter

O=C(O)c1ccccc1O [SAL, salicylic acid]
regulatory and VF gene expression in MSSA and MRSA [2]: significantly modulate | modulation of gene expression or hemolysis ([2]; 25 μg/ml): limited modulation | growth inhibition (in vitro MIC testing) [5]: no substantial growth inhibition | fibrinogen and fibronectin binding [6]: significant reductions | binding to fibrin and platelet-fibrin matrices (S. aureus [7]): Significant reductions | Hla protein production (S. aureus α-toxin): dose dependent reduction | thrombolysis and hemolysis by supernates (S. aureus α-toxin): reduced | α-toxin elaboration (S. aureus α-toxin): reduced | protease activity in supernatants (S. aureus [8]): increased up to five-fold | hla expression (S. aureus [1]): significantly reduced | protein A gene expression (spa) (S. aureus [1]): increased | sarA (P1) expression (S. aureus [1]): down-regulating | sarC (P3) expression (S. aureus [1]): up-regulating | agr expression (S. aureus [1]): reduced | sigB expression (as measured by increases in asp23 expression) [9]: induces | in vivo efficacy compared with aspirin ([10]; same in vivo efficacy study carried out with SAL): equivalent results to aspirin alone | intrinsic bacteriostatic or bactericidal effects [11]: no evident intrinsic bacteriostatic or bactericidal effects | Lipase activity increase (S. aureus [12]): ~2.6 fold | protein A expression increase (S. aureus [12]): ~20%

CC(=O)Oc1ccccc1C(=O)O [aspirin, acetylsalicylic acid]
modulation of gene expression or hemolysis ([2]; 25 μg/ml): limited modulation | bacterial counts in vegetations and kidneys (S. aureus IE; aspirin 8 mg/kg/d iv): significantly reduces | growth inhibition (in vitro MIC testing) [5]: no substantial growth inhibition | beneficial effects of 8 mg/kg/d versus lower (4 mg/kg/d) or higher (12 mg/kg/d) dose regimens (strain RN6390; 8 mg/kg/d): significantly exceeded | beneficial effects at increased dose (strain RN6390; aspirin 12 mg/kg/d): paradoxical loss | vegetation weight, and vegetation and kidney bacterial densities (strain RN6390; iv aspirin 4 to 12 mg/kg/d for 4 d): consistent and dose-dependent reduction | mass of echocardiographic detectable cardiac valve vegetations (strain RN6390; rabbit, in vivo): dramatic reductions | changes in phenotypic or genotypic characteristics [13]: neither aspirin (parent compound of SAL) nor indomethacin caused detectable changes | effects of aspirin treatment across strains ([10]; RN6390 and rsbU-repaired variant SH1000): Equivalent salutary effects | impact of aspirin ([10]; strains deleted of their entire sigB operon): dampened | prostacyclin generation ([14]; 12 mg/kg aspirin dosing): prolonged suppression | prolonged suppression of prostacyclin generation ([14]; 4 or 8 mg/kg aspirin): neither at 4 or 8 mg/kg

COc1ccc2c(c1)c(CC(=O)O)c(C)n2C(=O)c1ccc(Cl)cc1 [indomethacin]
changes in phenotypic or genotypic characteristics [13]: neither aspirin (parent compound of SAL) nor indomethacin caused detectable changes

CN[C@H](CC(C)C)C(=O)N[C@H]1C(=O)N[C@@H](CC(N)=O)C(=O)N[C@H]2C(=O)N[C@H]3C(=O)N[C@H](C(=O)N[C@H](C(=O)O)c4cc(O)cc(O)c4-c4cc3ccc4O)[C@H](O)c3ccc(c(Cl)c3)Oc3cc2cc(c3O[C@@H]2O[C@H](CO)[C@@H](O)[C@H](O)[C@H]2O[C@H]2C[C@](C)(N)[C@H](O)[C@H](C)O2)Oc2ccc(cc2Cl)[C@H]1O [vancomycin]
bacterial counts in vegetations and kidneys (S. aureus IE; vancomycin 7.5 mg/kg bid iv): significantly reduces
